Consider 24 compounds from ChEMBL document CHEMBL4340516, “Synthesis and antitumor activity of novel steroidal imidazolium salt derivatives” (Eur J Med Chem, 2019).

Common to all, as to type: functional, cell-based
One test has as its system SMMC-7721. The test can be described thus: Antiproliferative activity against human SMMC7721 cells assessed as reduction in cell viability incubated for 48 hrs by MTS assay. The note with it: SMMC-7721, 48 h.
Another test concerns HL-60. Nature of the test: Antiproliferative activity against human HL60 cells assessed as reduction in cell viability incubated for 48 hrs by MTS assay. The settings on record: HL-60, 48 h.
A further test deals with MCF7. Nature of the test: Antiproliferative activity against human MCF7 cells assessed as reduction in cell viability incubated for 48 hrs by MTS assay. The settings on record: MCF7, 48 h.
The subject of another test is A549. Nature of the test: Antiproliferative activity against human A549 cells assessed as reduction in cell viability incubated for 48 hrs by MTS assay. The settings on record: A549, 48 h.
Another test concerns SW480. Nature of the test: Antiproliferative activity against human SW480 cells assessed as reduction in cell viability incubated for 48 hrs by MTS assay. The settings on record: SW480, 48 h.

Regarding `C[C@@H]1CC[C@@]2(OC1)O[C@H]1C[C@H]3[C@@H]4C[C@H](n5cc[n+](Cc6ccc7ccccc7c6)c5)[C@]56C[C@H]5CC[C@]6(C)[C@H]4CC[C@]3(C)[C@H]1[C@@H]2C`, the concentration for half-maximal inhibition (IC50) with SMMC-7721 is 2.45 µM; with HL-60, 1.22 µM; in the test with MCF7, 1.95 µM; with A549 it was 4.92 µM; with SW480, 4.03 µM.
For `CC(C)CCC[C@@H](C)[C@H]1CC[C@H]2[C@@H]3C[C@H](n4cc[n+](CC(=O)c5ccccc5)c4)[C@]45C[C@H]4CC[C@]5(C)[C@H]3CC[C@]12C` the same measures were 1.29 µM, 1.53 µM, 6.98 µM, 7.28 µM and 6.06 µM.
On the same counts, the results for `C[C@@H]1CC[C@@]2(OC1)O[C@H]1C[C@H]3[C@@H]4CC=C5C[C@H](n6c[n+](Cc7ccc8ccccc8c7)c7ccccc76)CC[C@]5(C)[C@H]4CC[C@]3(C)[C@H]1[C@@H]2C` are 0.88 µM, 1.02 µM, 2.31 µM, 1.25 µM and 1.8 µM.
As for `C[C@@H]1CC[C@@]2(OC1)O[C@H]1C[C@H]3[C@@H]4C[C@H](n5cc[n+](Cc6ccccc6Br)c5)[C@]56C[C@H]5CC[C@]6(C)[C@H]4CC[C@]3(C)[C@H]1[C@@H]2C`, the 50% inhibitory concentration (IC50) was found to be 4.58 µM with SMMC-7721; 1.24 µM in the test with HL-60; 3.86 µM in the test with MCF7; 6.6 µM in the test with A549; 6.33 µM in the test with SW480.
On to `Cc1cc2c(cc1C)[n+](CC(=O)c1ccc3ccccc3c1)cn2[C@@H]1CC[C@@]2(C)C(=CC[C@H]3[C@@H]4C[C@@H]5O[C@]6(CC[C@@H](C)CO6)[C@@H](C)[C@@H]5[C@@]4(C)CC[C@@H]32)C1`, for which the IC50 came to 0.57 µM in the test with SMMC-7721; 0.45 µM in the test on HL-60; 3.05 µM with MCF7; 5.53 µM with A549; 3.1 µM in the test with SW480.
For `C[C@]12CC[C@H]3[C@@H](CC=C4C[C@@H](O)CC[C@@]43C)[C@@H]1CC[C@@H]2n1cc[n+](Cc2ccccc2Br)c1` the same measures were 7.63 µM, 6.3 µM, 9.61 µM, more than 20 µM and more than 20 µM.
For `Cc1cc2c(cc1C)[n+](Cc1ccc3ccccc3c1)cn2[C@@H]1CC[C@@]2(C)C(=CC[C@H]3[C@@H]4C[C@@H]5O[C@]6(CC[C@@H](C)CO6)[C@@H](C)[C@@H]5[C@@]4(C)CC[C@@H]32)C1` the same measures were 0.59 µM, 0.42 µM, 1.9 µM, 5.12 µM and 1.6 µM.
In the case of `C[C@@H]1CC[C@@]2(OC1)O[C@H]1C[C@H]3[C@@H]4CC=C5C[C@H](n6c[n+](CC(=O)c7cccc(Br)c7)c7ccccc76)CC[C@]5(C)[C@H]4CC[C@]3(C)[C@H]1[C@@H]2C`, the IC50 in the test with SMMC-7721 was 1.75 µM; with HL-60, 1.36 µM; in the test with MCF7, 1.53 µM; with A549, 1.77 µM; with SW480, 1.74 µM.
On the same counts, the results for `CC(C)CCC[C@@H](C)[C@H]1CC[C@H]2[C@@H]3CC=C4C[C@@H](n5cc[n+](CC(=O)c6ccc7ccccc7c6)c5)CC[C@]4(C)[C@H]3CC[C@]12C` are 2.1 µM, 7.26 µM, more than 20 µM, 9.65 µM and 11.3 µM.
For `CC(C)CCC[C@@H](C)[C@H]1CC[C@H]2[C@@H]3CC=C4C[C@@H](n5cc[n+](CC(=O)c6ccccc6)c5)CC[C@]4(C)[C@H]3CC[C@]12C` the same measures were 1.42 µM, 7.73 µM, 8.84 µM, 8.1 µM and 6.56 µM.
Turning to `C[C@]12CC[C@H]3[C@@H](CC=C4C[C@@H](O)CC[C@@]43C)[C@@H]1CC[C@@H]2n1cc[n+](Cc2ccc3ccccc3c2)c1`, the IC50 turned out to be 4.41 µM in the test with SMMC-7721; 2.68 µM with HL-60; 5.08 µM in the test with MCF7; 7.87 µM with A549; 6.47 µM with SW480.
On the same counts, the results for `C[C@@H]1CC[C@@]2(OC1)O[C@H]1C[C@H]3[C@@H]4CC=C5C[C@H](n6c[n+](CC(=O)c7ccccc7)c7ccccc76)CC[C@]5(C)[C@H]4CC[C@]3(C)[C@H]1[C@@H]2C` are 1.81 µM, 1.19 µM, 2.49 µM, 2.55 µM and 2.59 µM.
For `CC(C)CCC[C@@H](C)[C@H]1CC[C@H]2[C@@H]3C[C@H](n4cc[n+](CC(=O)c5cccc(Br)c5)c4)[C@]45C[C@H]4CC[C@]5(C)[C@H]3CC[C@]12C`, the half-inhibitory concentration (IC50) in the test with SMMC-7721 came out at 1.22 µM; with HL-60, 1.42 µM; in the test with MCF7 it was 8.7 µM; with A549, 7.84 µM; with SW480, 8.23 µM.
As for `CC(C)CCC[C@@H](C)[C@H]1CC[C@H]2[C@@H]3CC=C4C[C@@H](n5cc[n+](Cc6ccc7ccccc7c6)c5)CC[C@]4(C)[C@H]3CC[C@]12C`, the IC50 is 1.41 µM in the test with SMMC-7721; 5.39 µM in the test on HL-60; 8.35 µM in the test with MCF7; 6.95 µM in the test on A549; 9.29 µM in the test with SW480.
On the same counts, the results for `CC(=O)O[C@H]1C(=O)[C@@]2(C)[C@H]([C@H](OC(=O)c3ccccc3)[C@]3(O)C[C@H](OC(=O)[C@H](O)[C@@H](NC(=O)c4ccccc4)c4ccccc4)C(C)=C1C3(C)C)[C@]1(OC(C)=O)CO[C@@H]1C[C@@H]2O` [PACLITAXEL] are less than 0.008 µM, less than 0.008 µM, less than 0.008 µM, less than 0.008 µM and less than 0.008 µM.
On the same counts, the results for `C[C@@H]1CC[C@@]2(OC1)O[C@H]1C[C@H]3[C@@H]4C[C@H](n5ccnc5)[C@]56C[C@H]5CC[C@]6(C)[C@H]4CC[C@]3(C)[C@H]1[C@@H]2C` are 10 µM, 8.33 µM, 19.7 µM, 10.3 µM and more than 20 µM.
On the same counts, the results for `C[C@@H]1CC[C@@]2(OC1)O[C@H]1C[C@H]3[C@@H]4CC=C5C[C@H](n6cc[n+](CC(=O)c7ccccc7)c6)CC[C@]5(C)[C@H]4CC[C@]3(C)[C@H]1[C@@H]2C` are 7.15 µM, 1.09 µM, 5.18 µM, 7.3 µM and 8.18 µM.
As for `C[C@]12CC[C@H]3[C@@H](CC=C4C[C@@H](O)CC[C@@]43C)[C@@H]1CC[C@@H]2n1cc[n+](CC(=O)c2ccc3ccccc3c2)c1`, the IC50 in the test on SMMC-7721 was found to be 3.5 µM; in the test with HL-60, 2 µM; with MCF7, 4.38 µM; in the test on A549, 9.69 µM; in the test on SW480 it was 5.59 µM.
With `CC(C)CCC[C@@H](C)[C@H]1CC[C@H]2[C@@H]3C[C@H](n4cc[n+](Cc5ccccc5Br)c4)[C@]45C[C@H]4CC[C@]5(C)[C@H]3CC[C@]12C`, the IC50 with SMMC-7721 is 1.16 µM; with HL-60, 5.53 µM; with MCF7 it was 10.8 µM; with A549, 7.65 µM; in the test with SW480, 10.9 µM.
On the same counts, the results for `C[C@@H]1CC[C@@]2(OC1)O[C@H]1C[C@H]3[C@@H]4CC=C5C[C@H](n6cc[n+](Cc7ccc8ccccc8c7)c6)CC[C@]5(C)[C@H]4CC[C@]3(C)[C@H]1[C@@H]2C` are 1.15 µM, 1.01 µM, 1.09 µM, 1.12 µM and 1.59 µM.
On the same counts, the results for `C[C@@H]1CC[C@@]2(OC1)O[C@H]1C[C@H]3[C@@H]4CC=C5C[C@H](n6cc[n+](CC(=O)c7cccc(Br)c7)c6)CC[C@]5(C)[C@H]4CC[C@]3(C)[C@H]1[C@@H]2C` are 1.71 µM, 1.25 µM, 1.43 µM, 1.55 µM and 1.65 µM.
On the same counts, the results for `COc1ccc(C(=O)C[n+]2ccn([C@@H]3CC[C@@]4(C)C(=CC[C@H]5[C@@H]6CC[C@H]([C@H](C)CCCC(C)C)[C@@]6(C)CC[C@@H]54)C3)c2)cc1` are 2.9 µM, 6 µM, 5.25 µM, 13.2 µM and 4.87 µM.
Turning to `C[C@@H]1CC[C@@]2(OC1)O[C@H]1C[C@H]3[C@@H]4C[C@H](n5cc[n+](CC(=O)c6cccc(Br)c6)c5)[C@]56C[C@H]5CC[C@]6(C)[C@H]4CC[C@]3(C)[C@H]1[C@@H]2C`, the IC50 amounted to 7.28 µM with SMMC-7721; 1.28 µM in the test with HL-60; 5.21 µM with MCF7; 7.03 µM in the test with A549; 6.46 µM in the test on SW480.
On the same counts, the results for `CC(C)CCC[C@@H](C)[C@H]1CC[C@H]2[C@@H]3CC=C4C[C@H](n5cc[n+](CC(=O)c6cccc(Br)c6)c5)CC[C@]4(C)[C@H]3CC[C@]12C` are 1.7 µM, 9.91 µM, 8.51 µM, 7.22 µM and 6.33 µM.
